According to PubChem BioAssay (NCI):
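Five compound concentrations were applied to cells in 96-well plates for 48 hours; endpoints were derived by simple linear interpolation of the resulting dose-response curve. GI50 is the concentration that inhibits growth by half. TGI marks complete inhibition of growth.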

Assays:
Experiment in all cases: growth of human tumour cells (NCI), 48 h
UACC-257 melanoma = system: UACC-257 melanoma
MOLT-4 leukemia = system: MOLT-4 leukemia
PC-3 prostate = system: PC-3 prostate
SNB-19 CNS = system: SNB-19 CNS
RPMI-8226 leukemia = system: RPMI-8226 leukemia
SK-OV-3 ovarian = system: SK-OV-3 ovarian
DU-145 prostate = system: DU-145 prostate
TK-10 renal = system: TK-10 renal
SF-539 CNS = system: SF-539 CNS
MDA-MB-231 breast = system: MDA-MB-231 breast

Compound	TGI (UACC-257 melanoma) [µM]	TGI (MOLT-4 leukemia) [µM]	TGI (PC-3 prostate) [µM]	TGI (SNB-19 CNS) [µM]	TGI (RPMI-8226 leukemia) [µM]	TGI (SK-OV-3 ovarian) [µM]	TGI (DU-145 prostate) [µM]	TGI (TK-10 renal) [µM]	GI50 (UACC-257 melanoma) [µM]	GI50 (MOLT-4 leukemia) [µM]	GI50 (SF-539 CNS) [µM]	TGI (SF-539 CNS) [µM]	GI50 (SNB-19 CNS) [µM]	GI50 (RPMI-8226 leukemia) [µM]	GI50 (SK-OV-3 ovarian) [µM]	GI50 (TK-10 renal) [µM]	GI50 (MDA-MB-231 breast) [µM]	TGI (MDA-MB-231 breast) [µM]	GI50 (DU-145 prostate) [µM]	GI50 (PC-3 prostate) [µM]
O=C(CCl)N1CCN(c2ccccn2)CC1	65.5	> 100	> 100	> 100	> 100	> 100	> 100	35.8												
[pH]1p2[pH]p3p1p3[pH]2.c1cc[c]([Ge]([c]2ccccc2)[c]2ccccc2)cc1.c1cc[c]([Ge]([c]2ccccc2)[c]2ccccc2)cc1.c1cc[c]([Ge]([c]2ccccc2)[c]2ccccc2)cc1	31.7	> 100		27.2	75.5	33.8		33.5	15.2	16.3	13.9	31.8	14.1	17.6	15.4	18.5				
CN1CCN(CCCCCOc2cc(O)c3c(=O)cc(-c4ccccc4)oc3c2)CC1	3.78	12.4		22.3		16.9	> 100	39.4	2.03	3.27	2.81	7.87	4.11		3.62	12	1.12	4.53	10.5	
Cc1c(C(=O)/C=C/c2ccc([N+](=O)[O-])cc2)[n+](=O)c2ccccc2n1[O-]	> 100	82.2		> 100	> 100	> 100		> 100				> 100								
Oc1ccc(I)c2cccnc12	73.8	> 100		> 100	62.9	49.5		> 100				> 100								
O=C(CC(=O)N1N=C(n2ccc3ccccc32)CC1c1ccccc1)Nc1ccccc1Cl (configuration not stated)	> 100	> 100		> 100	> 100	> 100		> 100				> 100								
NC(=S)N/N=C/C(O[C@@H](/C=N/NC(N)=S)CO)n1cnc2c(N)ncnc21 (some centres not stated)	> 100	> 100		> 100	> 72.7	> 100		> 100				> 100								
CC1CN1c1c(C(=O)/C=C/c2ccc(F)cc2)c(-c2ccccc2)nn(C)c1=O (configuration not stated)	27.4	58.2		30.3	32.2			31												
O=c1[nH]c(-c2ccccc2)nc2cc([N+](=O)[O-])c(/C(Cl)=C/c3ccccc3)cc12	48.3	> 100		> 100	88.7	72.2		76.6				> 100								
CC(=O)[CH-]C(=O)c1ccccc1.CC(=O)[CH-]C(=O)c1ccccc1.CC[C@H](CCC(C)[C@H]1CCC2[C@@H]3CC=C4C[C@@H]([O-])CC[C@]4(C)C3CC[C@@]21C)C(C)C.CC[C@H](CCC(C)[C@H]1CCC2[C@@H]3CC=C4C[C@@H]([O-])CC[C@]4(C)C3CC[C@@]21C)C(C)C.Cl.[Ti+4] (some centres not stated)	> 25	> 25		> 25	> 25	> 25		> 25				> 25			> 25					
CC(=O)[CH-]C(=O)c1ccccc1.CC(=O)[CH-]C(=O)c1ccccc1.CC(=O)[CH-]C(=O)c1ccccc1.[Cl-].[Hf+4]	75.3	> 100			> 100	> 100		> 100	19.9	15.4				34.2	46.1	39				
CC(=O)NNc1nc(C)c(C(=O)/C=C/c2ccc(N(C)C)cc2)s1	> 100	> 100			> 100	> 100		> 100				> 100								
C=CCc1cc(OC)c(O)c(C(=O)/C=C/c2ccc(OC)c(OC)c2)c1	37.4			30.5	3.31	64.9		64.1				48.1								
CN1C(=O)[C@@H](CC2CCCC2)N(C2CCCC2)c2nc(Nc3cc(Cl)c(O)c(Cl)c3)ncc21	> 100	56	> 100	> 100	49	75.9	> 100	> 100	25.1	12.2	19.8	> 100	28.3	10.4	17.1	27.2			27.6	14.1
O=C(Nc1ccc(Nc2ccc(NC(=O)c3ccccc3)c3c2C(=O)c2ccccc2C3=O)c2c1C(=O)c1ccccc1C2=O)c1ccccc1	> 100	> 100		> 100	> 100	> 100		> 100				> 100								
COc1ccc(C(=O)C(c2ccc(OC)cc2)C2(O)C(=O)Nc3c(Cl)cc(Cl)cc32)cc1 (configuration not stated)	31.7	36.2		56	33.6	90.6		55												
CCP(C)(=O)CC	> 100	> 100		> 100	> 100	> 100		> 100				> 100								

Compound	TGI (UACC-257 melanoma) [µM]	TGI (MOLT-4 leukemia) [µM]	TGI (PC-3 prostate) [µM]	TGI (SNB-19 CNS) [µM]	TGI (RPMI-8226 leukemia) [µM]	TGI (SK-OV-3 ovarian) [µM]	TGI (DU-145 prostate) [µM]	TGI (TK-10 renal) [µM]	GI50 (UACC-257 melanoma) [µM]	GI50 (MOLT-4 leukemia) [µM]	GI50 (SF-539 CNS) [µM]	TGI (SF-539 CNS) [µM]	GI50 (SNB-19 CNS) [µM]	GI50 (RPMI-8226 leukemia) [µM]	GI50 (SK-OV-3 ovarian) [µM]	GI50 (TK-10 renal) [µM]	GI50 (MDA-MB-231 breast) [µM]	TGI (MDA-MB-231 breast) [µM]	GI50 (DU-145 prostate) [µM]	GI50 (PC-3 prostate) [µM]
O=C1CC[C@@H](S(=O)(=O)c2ccccc2)[C@H](/C=C/c2ccccc2)O1	> 100	> 100		> 100	> 100	> 100		> 100				> 100								
Cc1[nH]c2ccccc2c1/C=C/c1c(C)[nH]c2ccccc12	> 100	> 100			> 100	> 100		> 100				> 100								
CC(=O)CCC[C@@H](C)[C@@H]1O[C@H]([C@@]2(C)CCC(=O)O2)CC2[C@H]1OC(=O)C21CC1 (some centres not stated)	> 100	> 100	> 100	> 100	> 100	> 100			50.7	75.5	60.6	> 100	> 100	> 100	> 100		> 100	> 100		52.5
Nc1nc2c(ncn2C2OC(CO)C(O)C2O)c(=O)o1 (configuration not stated)	> 100		> 100	> 100	> 100	> 100	> 100	> 100				> 100								
CCOC(=O)C1(C)C2=CC=C(O2)C(C)(C)C2=CC=C(O2)C(C)(C)C2=CC=C(O2)C(C)(C)C2=CC=C1O2	> 100	> 100		> 100		> 100		> 100				> 100								
Cc1cc(C)c([O-])c(-[n+]2c(-c3ccccc3)cc(-c3ccccc3)cc2-c2ccccc2)c1	10.1	> 100		21		27.2		19.4				26.9								
NNC(=O)N/N=C(/CC1(O)C(=O)Nc2ccc(Br)cc21)c1ccccc1 (configuration not stated)	> 100	44.2		46.2	> 100	> 100		> 100				> 100								
O=C1C=C(Nc2cc(Cl)ccc2Cl)c2ccccc2C1=O	41.8			> 100	68	> 100						> 100								
CN(C)CC1CCCC/C1=N\OC(=O)c1ccccc1 (configuration not stated)	> 100	> 100			> 100	> 100		> 100				> 100								
CS(=O)(=O)ON1C(=O)c2ccc(N)cc2C1=O	> 31.6	> 69.3		> 100	61.5	> 100		> 100				> 100								
[CH3][Ge]([CH3])([CH2]CC#N)[S]c1ccccc1	70.7	17.6		37.3	53.2	55.9		72.8	22.7	3.58	12.9	27.8	18	16.2	21.7	24.4				
C=C1C2CCCC1C1(S(C)(=O)=O)CCCCC21O (configuration not stated)	> 100	> 100		> 100	> 100	> 100		> 100				> 100								
COC12OCCN(C)C1=CC(=O)C1N=NCC12 (configuration not stated)	> 100	> 100			> 100	> 100		> 100				> 100								
COC1(OC)CCC2(C)OC(c3ccccc3)C1O2 (configuration not stated)	> 100	> 100		> 100	> 100	> 100		> 100				> 100								
NC(N)=NCCCC(Nc1c2ccccc2nc2ccccc12)C(=O)O (configuration not stated)	> 100	> 100			> 100			> 100				> 100								
COc1c(CC(C)=O)c2ccccc2n1C(C)=O	> 100	> 100		> 100	> 100	> 100						> 100								
Cc1cc(NS(=O)(=O)c2ccc(NC(=O)c3cccc4c(Nc5ccc(S(=O)(=O)Nc6cc(C)on6)cc5)c5ccc(Cl)cc5nc34)cc2)no1	> 100	> 100		81.8	> 100	> 100		> 100				> 100								
